Measurements published in paper PMC9147274 (Pharmaceuticals, 2022).

Key:
[1] = test system: MOLT-3; assay: Cytotoxicity toward MOLT-3, XTT assay; format: cell-based, human; details: for IC50: Homo sapiens, MOLT-3, XTT, 48 h; for SI (MOLT-3): (IC50 for MRC-5)/(IC50 for MOLT-3)
Method: (§1) DMSO was used as vehicle control. […] All experiments were performed in triplicate. […] Cells were exposed for 48 h.
(§2) Table S1 The cytotoxicity of triazole-cored derivatives toward various human lung carcinoma cell lines A549, Thai human cholangiocarcinoma cells HuCCA-1, T-cell acute lymphoblastic leukemia MOLT-3, and acute promyelocytic leukemia HL-60. The inhibitory activities were indicated as IC50 in micromolar scale (µM). The calculated selectivity indices (SI) were reported in square brackets.
(§3) Cancer Cell lines, IC50 (µM), [SI]

[2] = test system: HL-60; assay: Cytotoxicity toward HL-60, XTT assay; format: cell-based, human; details: for IC50: Homo sapiens, HL-60, XTT, 48 h; for SI (HL-60): (IC50 for MRC-5)/(IC50 for HL-60)
Method: as §1, §2, §3

[3] = Cytotoxicity toward MRC-5, MTT assay; format: cell-based; details: human, MRC-5 cells, MRC-5 normal cells
Method: as §1

[4] = test system: HuCCA-1; assay: Cytotoxicity toward HuCCA-1, MTT assay; format: cell-based, human; details: for IC50: Homo sapiens, HuCC-A1, HuCCA-1, MTT, 48 h
Method: as §1, §2, §3

[5] = test system: A549; assay: Cytotoxicity toward A549, MTT assay; format: cell-based, human; details: for IC50: Homo sapiens, A549, MTT, 48 h
Method: as §1, §2, §3

[6] = test system: HepG2; assay: Cytotoxicity toward HepG2, MTT assay; details: for Cytotoxicity HepG2 Cell Viability at 25 µM: HepG2, 25 µM, MTT; for Cytotoxicity HepG2 Cell Viability at 25 µM / IC50: 72 h; for Selectivity index (SI): IC50 MRC-5 / IC50 HepG2; for IC50: read-out: Cytotoxicity HepG2 IC50, HepG2, MTT
Method: DMSO was used as vehicle control. […] All experiments were performed in triplicate. Data were expressed as the IC50 ± SD. […] Cells were exposed for 48 h.

[7] = cited from earlier work
[8] = test system: HepG2 cells; assay: Detection of apoptosis (Muse Annexin V & Dead Cell Kit); format: cell-based, human; details: 48 h; for average percentage of apoptotic cells (total, early and late apoptosis): untreated 22.35 ± 0.07%
Method: Based on annexin V reactivity and the intensity of the 7-AAD fluorescence, cells can be classified into four categories: dead, live, early apoptosis, and late apoptosis. […] The detection of apoptosis was performed by the Muse® Annexin V & Dead Cell Kit according to the manufacturer’s protocol (Millipore, Billerica, MA, USA). […] An amount of 100 µL of HepG2 cells in suspension and 100 µL of Muse Annexin V & Dead Cell reagent were added to a 1.5 mL tube. The apoptosis was measured using the Muse cell analyzer and Muse analysis software (Millipore, Billerica, MA, USA). Cells were classified into four groups: live (Annexin V− and 7-AAD−), early apoptosis (Annexin V+ and 7-AAD−), late apoptosis (Annexin V+ and 7-AAD+), and dead or necrotic (Annexin V− and 7-AAD+). The apoptosis experiment was performed in duplicate.

[9] = test system: HepG2 cells; assay: Cell-cycle analysis (propidium iodide, flow cytometry); format: cell-based, human; details: HepG2, 2 µM, 72 h
Method: The concentration of DMSO was kept at 0.5% v/v for all conditions. Cells were washed with PBS before they were harvested; 1 × 10^5 Cells were collected and fixed with 70% ice-cold ethanol, and then washed twice with ice-cold PBS. Afterward, the cells were treated with 100 g/mL of DNase-free RNase A (Sigma-Aldrich, St. Louis, MO, USA) in PBS containing 0.1% v/v Triton-X 100 (Sigma-Aldrich, St. Louis, MO, USA) for 5 min at room temperature and then stained with 20 g/mL propidium iodide (Life Technologies, Carlsbad, CA, USA) in PBS containing 0.1% v/v Triton-X 100 for 15 min at room temperature while protected from light. Cell-cycle distribution was then analyzed with a flow cytometer (Attune NxT, Thermo Fischer Scientific, Waltham, MA, USA). Data were analyzed with Attune NxT Software (Thermo Fischer Scientific, Waltham, MA, USA). All experiments were performed in triplicate. Student’s t-test was used for statistical analysis; p < 0.05 was considered statistically significant [96].

[10] = test system: HepG2 cells; assay: Cell morphology by light microscopy; details: 48 h, 2.5-10.0 µM

Compound	IC50 [1]	IC50 [2]	IC50 at 48 h [3]	IC50 [4]	IC50 [5]	further results
O=C(NCc1cn(-c2ccccc2)nn1)Nc1ccc(Cl)c(C(F)(F)F)c1 [Compound 2a]	> 100 µM	> 100 µM	> 100 µM	> 100 µM	> 100 µM	
O=C(NCc1cn(-c2ccccc2F)nn1)Nc1ccc(Cl)c(C(F)(F)F)c1 [Compound 2b, 1-(4-chloro-3-(trifluoromethyl)phenyl)-3-((1-(2-fluorophenyl)-1H-1,2,3-triazol-4-yl)methyl)urea]						melting point: 168 to 169 °C
O=C(NCc1cn(-c2ccccc2F)nn1)Nc1ccc(Cl)c(C(F)(F)F)c1 [Compound 2b]	25.3 ± 1.38 µM	40.6 ± 4.64 µM	73.5 ± 9.14 µM	69.2 ± 19.2 µM	77.3 ± 1.76 µM	
O=C(NCc1cn(-c2cccc(F)c2)nn1)Nc1ccc(Cl)c(C(F)(F)F)c1 [Compound 2c]	18.4 ± 0.36 µM	34.1 ± 11.3 µM	61.6 ± 3.63 µM	44.9 ± 3.84 µM	69.4 ± 2.44 µM	
O=C(NCc1cn(-c2ccc(F)cc2)nn1)Nc1ccc(Cl)c(C(F)(F)F)c1 [Compound 2d]	20.5 ± 1.23 µM	35 ± 9.04 µM	59.3 ± 1.96 µM	55.4 ± 6.49 µM	57.4 ± 8.36 µM	
O=C(NCc1cn(-c2ccccc2Cl)nn1)Nc1ccc(Cl)c(C(F)(F)F)c1 [Compound 2e]		52.1 ± 13.9 µM	61.4 ± 3.51 µM			
O=C(NCc1cn(-c2cccc(Cl)c2)nn1)Nc1ccc(Cl)c(C(F)(F)F)c1 [Compound 2f]		37.5 ± 2.23 µM	63.8 ± 3.53 µM			
O=C(NCc1cn(-c2ccc(Cl)cc2)nn1)Nc1ccc(Cl)c(C(F)(F)F)c1 [Compound 2g]	> 100 µM	> 100 µM	14.6 ± 4.17 µM	33.6 ± 1.83 µM	83 ± 2.7 µM	
O=C(NCc1cn(-c2ccccc2Br)nn1)Nc1ccc(Cl)c(C(F)(F)F)c1 [Compound 2h]		37.7 ± 3.88 µM	52.9 ± 3.1 µM			
O=C(NCc1cn(-c2cccc(Br)c2)nn1)Nc1ccc(Cl)c(C(F)(F)F)c1 [Compound 2i]		35.75 ± 0.34 µM	53 ± 3.31 µM			
O=C(NCc1cn(-c2ccc(Br)cc2)nn1)Nc1ccc(Cl)c(C(F)(F)F)c1 [Compound 2j]	53.4 ± 24.3 µM	76 ± 22.6 µM	60.7 ± 1.88 µM	10.8 ± 0.36 µM	33.8 ± 2.29 µM	
O=C(NCc1cn(-c2ccccc2I)nn1)Nc1ccc(Cl)c(C(F)(F)F)c1 [Compound 2k]		37.4 ± 2.36 µM	49.1 ± 2.95 µM			
O=C(NCc1cn(-c2cccc(I)c2)nn1)Nc1ccc(Cl)c(C(F)(F)F)c1 [Compound 2l]		33.2 ± 0.58 µM	49.2 ± 2.13 µM			
O=C(NCc1cn(-c2ccc(I)cc2)nn1)Nc1ccc(Cl)c(C(F)(F)F)c1 [Compound 2m]	29.9 ± 1.51 µM	49.8 ± 7.19 µM	49.9 ± 6.61 µM			
O=C(NCc1cn(-c2ccccc2O)nn1)Nc1ccc(Cl)c(C(F)(F)F)c1 [Compound 2n]	39.4 ± 3.52 µM	51.1 ± 1.77 µM				
O=C(NCc1cn(-c2cccc(O)c2)nn1)Nc1ccc(Cl)c(C(F)(F)F)c1 [Compound 2o]	28.3 ± 4.51 µM	39.2 ± 2.72 µM				
O=C(NCc1cn(-c2ccc(O)cc2)nn1)Nc1ccc(Cl)c(C(F)(F)F)c1 [Compound 2p]	22.5 ± 1.85 µM	32.9 ± 7.77 µM	69.6 ± 5.66 µM	87.43 ± 0.79 µM	85.9 ± 7.24 µM	
COc1ccccc1-n1cc(CNC(=O)Nc2ccc(Cl)c(C(F)(F)F)c2)nn1 [Compound 2q]		42.4 ± 2.18 µM	68 ± 5.14 µM			
COc1cccc(-n2cc(CNC(=O)Nc3ccc(Cl)c(C(F)(F)F)c3)nn2)c1 [Compound 2r]		42.8 ± 1.95 µM	76.1 ± 9.18 µM			
COc1ccc(-n2cc(CNC(=O)Nc3ccc(Cl)c(C(F)(F)F)c3)nn2)cc1 [Compound 2s]		> 100 µM	21.2 ± 2.51 µM			
Cc1ccccc1-n1cc(CNC(=O)Nc2ccc(Cl)c(C(F)(F)F)c2)nn1 [Compound 2t]		45 ± 4.03 µM	61.7 ± 3.22 µM			
CC(=O)Nc1ccc(-n2cc(CNC(=O)Nc3ccc(Cl)c(C(F)(F)F)c3)nn2)cc1 [Compound 2u, N-(4-(4-((3-(4-chloro-3-(trifluoromethyl)phenyl)ureido)methyl)-1H-1,2,3-triazol-1-yl)phenyl)acetamide]						melting point: 238 to 239 °C
Cc1cccc(-n2cc(CNC(=O)Nc3ccc(Cl)c(C(F)(F)F)c3)nn2)c1 [Compound 2u]		> 100 µM				
Cc1ccc(-n2cc(CNC(=O)Nc3ccc(Cl)c(C(F)(F)F)c3)nn2)cc1 [Compound 2v]	91.1 ± 1.66 µM	> 100 µM	99.9 ± 0.9 µM			
O=C(NCc1cn(-c2ccccc2C(F)(F)F)nn1)Nc1ccc(Cl)c(C(F)(F)F)c1 [Compound 2w]	30.6 ± 0.8 µM	34.5 ± 0.73 µM	58.8 ± 0.39 µM			
O=C(NCc1cn(-c2cccc(C(F)(F)F)c2)nn1)Nc1ccc(Cl)c(C(F)(F)F)c1 [Compound 2x, 1-(4-chloro-3-(trifluoromethyl)phenyl)-3-((1-(3-(trifluoromethyl)phenyl)-1H-1,2,3-triazol-4-yl)methyl)urea]	27.8 ± 4.56 µM	28.8 ± 7.46 µM	63.2 ± 1.57 µM			Cytotoxicity HepG2 Cell Viability at 25 µM [6]: 81%; SI (MOLT-3) [1]: 2.28; SI (HL-60) [2]: 2.19; melting point: 152 to 153 °C
O=C(NCc1cn(-c2ccc(C(F)(F)F)cc2)nn1)Nc1ccc(Cl)c(C(F)(F)F)c1 [Compound 2y, 1-(4-chloro-3-(trifluoromethyl)phenyl)-3-((1-(4-(trifluoromethyl)phenyl)-1H-1,2,3-triazol-4-yl)methyl)urea]	18.1 ± 0.45 µM	19.4 ± 0.5 µM	58.6 ± 3.51 µM			Selectivity index (SI) [6]: 9.81; IC50 [6]: 5.97 ± 2.14 µM; SI (MOLT-3) [1]: 3.23; SI (HL-60) [2]: 3.02; melting point: 199 to 200 °C
N#Cc1ccccc1-n1cc(CNC(=O)Nc2ccc(Cl)c(C(F)(F)F)c2)nn1 [Compound 2z, 1-(4-chloro-3-(trifluoromethyl)phenyl)-3-((1-(2-cyanophenyl)-1H-1,2,3-triazol-4-yl)methyl)urea]		56.4 ± 10.9 µM	59.7 ± 6.63 µM			Cytotoxicity HepG2 Cell Viability at 25 µM [6]: 66%; SI (HL-60) [2]: 1.06; melting point: 162 to 163 °C
COc1cccc2c1C(=O)c1c(O)c3c(c(O)c1C2=O)C[C@@](O)(C(=O)CO)C[C@@H]3O[C@H]1C[C@H](N)[C@H](O)[C@H](C)O1 [Doxorubicin, reference compound]	0.01 µM	0.12 ± 0.02 µM	2.26 µM	1.21 ± 0.04 µM	0.47 ± 0.02 µM	Selectivity index (SI) [6]: 3.83; IC50 [6]: 0.59 ± 0.1 µM; SI (MOLT-3) [1]: 226; SI (HL-60) [2]: 18.83; SI (HuCCA-1) ([4]; (IC50 for MRC-5)/(IC50 for HuCCA-1)): 1.87; SI (A549) ([5]; (IC50 for MRC-5)/(IC50 for A549)): 4.81
CNC(=O)c1cc(Oc2ccc(NC(=O)Nc3ccc(Cl)c(C(F)(F)F)c3)cc2)ccn1 [Sorafenib]		5.35 ± 0.38 µM	19.7 ± 1.68 µM	33.2 ± 1.45 µM	19.65 ± 0.01 µM	IC50 [6]: 5.97 ± 0.71 µM; bioavailability [7]: 38–49%; Late Apop./Dead (late stage apoptotic cells) ([8]; HepG2, 2.5 µM): 7.60%; average percentage of apoptotic cells (total, early and late apoptosis) ([8]; HepG2, 2.5 µM): 24.55 ± 0.28%; Late Apop./Dead (late stage apoptotic cells) ([8]; HepG2, 10.0 µM): 13.65%; average percentage of apoptotic cells (total, early and late apoptosis) ([8]; HepG2, 10.0 µM): 46.45 ± 0.78%; Effect on cell cycle [9]: induced S and G2/M phase cell-cycle arrest; Cell morphology changes of HepG2 [10]: cell morphology changes (shrink and smaller in size) were observed after treating HepG2 with Sorafenib at 5.0 µM and 10.0 µM
